Experimental findings from US8178535B2, “Substituted sulfonamide compounds having bradykinin 1 receptor activity and use thereof as medicaments” (Gruenenthal GmbH, priority 2008, dated 2012) are described below.

As usually defined, the inhibition is the relative decrease from the control value, in per cent.

The target in assay [1] is T1, human B1R receptor (hB1R) (Homo sapiens, UniProt P46663).
T1 construct: host or cells: CHO K1 cells
T1 sequence (P46663 1-353): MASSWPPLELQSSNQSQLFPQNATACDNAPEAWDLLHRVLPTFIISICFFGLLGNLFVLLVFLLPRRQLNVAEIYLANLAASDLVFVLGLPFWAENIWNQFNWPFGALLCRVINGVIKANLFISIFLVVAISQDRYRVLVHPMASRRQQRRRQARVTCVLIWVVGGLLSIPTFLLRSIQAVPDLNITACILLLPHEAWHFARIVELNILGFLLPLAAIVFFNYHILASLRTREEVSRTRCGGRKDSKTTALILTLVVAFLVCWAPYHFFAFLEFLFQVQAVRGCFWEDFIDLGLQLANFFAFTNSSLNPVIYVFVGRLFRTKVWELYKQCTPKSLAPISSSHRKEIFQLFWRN
In words: FLIPR Ca2+ assay (Fluo-4) on CHO K1 cells stably transfected with the human B1R gene. The assay is classed as cell-based. Conditions: CHO-K1; test substance 10 μM; agonist Lys-Des-Arg9-bradykinin 0.5 nM; % inhibition compared to the maximum achievable inhibition. Summed up:
(§1)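 CHO K1 cells stably expressing human or rat B1R, Fluo-4 loaded, read by FLIPR (Ex 488/Em 540, peak fluorescence). Compound at 10 μM gives % activation vs agonist. After 10 min, agonist added (human: Lys-Des-Arg9-bradykinin 0.5 nM; rat: Des-Arg9-bradykinin 100 nM); % inhibition relative to maximal achievable inhibition.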

Assay [2] deals with T2, B1R receptor of rats (rB1R) (Rattus norvegicus, UniProt P97583).
T2 construct: host or cells: CHO K1 cells
T2 sequence (P97583 1-337): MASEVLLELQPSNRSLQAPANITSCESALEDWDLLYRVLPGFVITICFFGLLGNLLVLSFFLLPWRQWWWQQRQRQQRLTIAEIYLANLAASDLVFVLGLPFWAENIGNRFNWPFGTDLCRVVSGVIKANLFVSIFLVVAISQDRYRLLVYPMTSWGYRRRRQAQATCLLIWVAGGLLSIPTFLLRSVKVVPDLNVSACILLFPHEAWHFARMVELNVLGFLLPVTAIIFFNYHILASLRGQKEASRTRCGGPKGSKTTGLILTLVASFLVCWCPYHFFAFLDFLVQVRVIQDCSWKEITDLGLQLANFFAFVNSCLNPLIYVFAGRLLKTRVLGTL
In words: FLIPR Ca2+ assay (Fluo-4) on CHO K1 cells stably transfected with the B1R gene of rats. The assay is classed as cell-based. Conditions: CHO-K1; test substance 10 μM; agonist Des-Arg9-bradykinin 100 nM; % inhibition compared to the maximum achievable inhibition. Put shortly:
as §1

Take `Cc1cc(C)c(S(=O)(=O)N2CCCCC2COCC(=O)N2CCn3cccc3C2CCc2ccccc2)c(C)c1` (stereo not drawn) [(45), 2-((1-(mesitylsulfonyl)piperidin-2-yl)methoxy)-1-(1-phenethyl-3,4-dihydro-pyrrolo[1,2-a]pyrazin-2(1H)-yl)ethanone]: the inhibition at 10 µM in assay [1] turned out to be 45%; in assay [2] it was 98%.
As for `Cc1cc(C)c(S(=O)(=O)N2CCCCC2COCC(=O)N2CCn3c(CN(C)C)ccc3C2c2ccccc2)c(C)c1` (stereo not drawn) [(46), 1-(6-((dimethylamino)methyl)-1-phenyl-3,4-dihydropyrrolo[1,2-a]pyrazin-2(1H)-yl)-2-((1-(mesitylsulfonyl)piperidin-2-yl)methoxy)ethanone], the inhibition at 10 µM in assay [1] and in assay [2] was 102% throughout.
With `Cc1cc(C)c(S(=O)(=O)N2CCCCC2COCC(=O)N2CCn3c(CN4CCCC4)ccc3C2c2ccccc2)c(C)c1` (stereo not drawn) [(47), 2-((1-(mesitylsulfonyl)piperidin-2-yl)methoxy)-1-(1-phenyl-6-(pyrrolidin-1-yl-methyl)-3,4-dihydropyrrolo[1,2-a]pyrazin-2(1H)-yl)ethanone], the inhibition at 10 µM came out at 101% in assay [1] and 103% in assay [2].
In the same order, the values of `Cc1cc(C)c(S(=O)(=O)N2CCCCC2COCC(=O)N2CCn3c(CN4CCCCC4)ccc3C2c2ccccc2)c(C)c1` (stereo not drawn) [(48), 2-((1-(mesitylsulfonyl)piperidin-2-yl)methoxy)-1-(1-phenyl-6-(piperidin-1-yl-methyl)-3,4-dihydropyrrolo[1,2-a]pyrazin-2(1H)-yl)ethanone] are 103% and 103%.
On the same counts, the results for `Cc1cc(C)c(S(=O)(=O)N2CCCCC2COCC(=O)N2CCn3c(CN4CCOCC4)ccc3C2c2ccccc2)c(C)c1` (stereo not drawn) [(49), 2-((1-(mesitylsulfonyl)piperidin-2-yl)methoxy)-1-(6-(morpholinomethyl)-1-phenyl-3,4-dihydropyrrolo[1,2-a]pyrazin-2(1H)-yl)ethanone] are 103% and 103%.
On the same counts, the results for `Cc1cc(C)c(S(=O)(=O)N2CCCCC2COCC(=O)N2CCn3c(CN(C)C)ccc3C2Cc2ccccc2)c(C)c1` (stereo not drawn) [(50), 1-(1-benzyl-6-((dimethylamino)methyl)-3,4-dihydropyrrolo[1,2-a]pyrazin-2(1H)-yl)-2-((1-(mesitylsulfonyl)piperidin-2-yl)methoxy)ethanone] are 100% and 102%.
Take `Cc1cc(C)c(S(=O)(=O)N2CCCCC2COCC(=O)N2CCn3c(CN(C)C)ccc3C2CCc2ccccc2)c(C)c1` (stereo not drawn) [(51), 1-(6-((dimethylamino)methyl)-1-phenethyl-3,4-dihydropyrrolo[1,2-a]pyrazin-2(1H)-yl)-2-((1-(mesitylsulfonyl)piperidin-2-yl)methoxy)ethanone]: the inhibition at 10 µM in assay [1] and in assay [2] was 101% throughout.
With `CCCCC1c2ccc(CN(C)C)n2CCN1C(=O)COCC1CCCCN1S(=O)(=O)c1c(C)cc(C)cc1C` (stereo not drawn) [(52), 1-(1-butyl-6-((dimethylamino)methyl)-3,4-dihydropyrrolo[1,2-a]pyrazin-2(1H)-yl)-2-((1-(mesitylsulfonyl)piperidin-2-yl)methoxy)ethanone], the inhibition at 10 µM in assay [1] amounted to 103%; in assay [2], 100%.
On the same counts, the results for `Cc1cc(C)c(S(=O)(=O)N2CCCCC2COCC(=O)N2CCn3c(CN(C)C)ccc3C2c2cccs2)c(C)c1` (stereo not drawn) [(53), 1-(6-((dimethylamino)methyl)-1-(thiophen-2-yl)-3,4-dihydropyrrolo[1,2-a]pyrazin-2(1H)-yl)-2-((1-(mesitylsulfonyl)piperidin-2-yl)methoxy)ethanone] are 92% and 102%.
On to `CCC1c2ccc(CN(C)C)n2CCN1C(=O)COCC1CCCCN1S(=O)(=O)c1c(C)cc(C)cc1C` (stereo not drawn) [(54), 1-(6-((dimethylamino)methyl)-1-ethyl-3,4-dihydropyrrolo[1,2-a]pyrazin-2(1H)-yl)-2-((1-(mesitylsulfonyl)piperidin-2-yl)methoxy)ethanone], for which the inhibition at 10 µM in assay [1] was determined as 102%; in assay [2], 100%.
On the same counts, the results for `CCC1c2cccn2CCN1C(=O)COCC1CCCCN1S(=O)(=O)c1c(C)cc(C)cc1C` (stereo not drawn) [(55), 1-(1-ethyl-3,4-dihydropyrrolo[1,2-a]pyrazin-2(1H)-yl)-2-((1-(mesitylsulfonyl)piperidin-2-yl)methoxy)ethanone] are 98% and 103%.
In the same order, the values of `CCCC1c2cccn2CCN1C(=O)COCC1CCCCN1S(=O)(=O)c1c(C)cc(C)cc1C` (stereo not drawn) [(56), 2-((1-(mesitylsulfonyl)piperidin-2-yl)methoxy)-1-(1-propyl-3,4-dihydropyrrolo[1,2-a]pyrazin-2(1H)-yl)ethanone] are 95% and 102%.
Turning to `Cc1cc(C)c(S(=O)(=O)N2CCCCC2COCC(=O)N2CCn3cccc3C2C(C)C)c(C)c1` (stereo not drawn) [(57), 1-(1-isopropyl-3,4-dihydropyrrolo[1,2-a]pyrazin-2(1H)-yl)-2-((1-(mesitylsulfonyl)piperidin-2-yl)methoxy)ethanone], the results for the inhibition at 10 µM in assay [1] and in assay [2] were 102% and 103%, respectively.
In the same order, the values of `CCC1c2ccc(C)n2CCN1C(=O)COCC1CCCCN1S(=O)(=O)c1c(C)cc(C)cc1C` (stereo not drawn) [(58), 1-(1-ethyl-6-methyl-3,4-dihydropyrrolo[1,2-a]pyrazin-2(1H)-yl)-2-((1-(mesitylsulfonyl)piperidin-2-yl)methoxy)ethanone] are 97% and 103%.
In the same order, the values of `Cc1cc(C)c(S(=O)(=O)N2CCCCC2COCC(=O)N2CCn3c(C)ccc3C2C(C)C)c(C)c1` (stereo not drawn) [(59), 1-(1-isopropyl-6-methyl-3,4-dihydropyrrolo[1,2-a]pyrazin-2(1H)-yl)-2-((1-(mesitylsulfonyl)piperidin-2-yl)methoxy)ethanone] are 85% and 103%.
In the same order, the values of `COc1cc(C)c(S(=O)(=O)N2CCCCC2COCC(=O)N2CCn3cccc3C2CCc2ccccc2)c(C)c1` (stereo not drawn) [(60), 2-((1-(4-methoxy-2,6-dimethylphenylsulfonyl)piperidin-2-yl)methoxy)-1-(1-phenethyl-3,4-dihydropyrrolo[1,2-a]pyrazin-2(1H)-yl)ethanone] are 87% and 102%.
In the case of `COc1cc(C)c(S(=O)(=O)N2CCCCC2COCC(=O)N2CCn3c(CN(C)C)ccc3C2c2ccccc2)c(C)c1` (stereo not drawn) [(61), 1-(6-((dimethylamino)methyl)-1-phenyl-3,4-dihydropyrrolo[1,2-a]pyrazin-2(1H)-yl)-2-((1-(4-methoxy-2,6-dimethylphenylsulfonyl)piperidin-2-yl)methoxy)ethanone], the inhibition at 10 µM in assay [1] was 102%; in assay [2] it was 101%.
In the same order, the values of `COc1cc(C)c(S(=O)(=O)N2CCCCC2COCC(=O)N2CCn3c(CN4CCCC4)ccc3C2c2ccccc2)c(C)c1` (stereo not drawn) [(62), 2-((1-(4-methoxy-2,6-dimethylphenylsulfonyl)piperidin-2-yl)methoxy)-1-(1-phenyl-6-(pyrrolidin-1-ylmethyl)-3,4-dihydropyrrolo[1,2-a]pyrazin-2(1H)-yl)ethanone] are 102% and 101%.
Turning to `COc1cc(C)c(S(=O)(=O)N2CCCCC2COCC(=O)N2CCn3c(CN4CCCCC4)ccc3C2c2ccccc2)c(C)c1` (stereo not drawn) [(63), 2-((1-(4-methoxy-2,6-dimethylphenylsulfonyl)piperidin-2-yl)methoxy)-1-(1-phenyl-6-(piperidin-1-ylmethyl)-3,4-dihydropyrrolo[1,2-a]pyrazin-2(1H)-yl)ethanone], the figures for the inhibition at 10 µM in assay [1] and in assay [2] were 104% and 103%, respectively.
In the same order, the values of `COc1cc(C)c(S(=O)(=O)N2CCCCC2COCC(=O)N2CCn3c(CN4CCOCC4)ccc3C2c2ccccc2)c(C)c1` (stereo not drawn) [(64), 2-((1-(4-methoxy-2,6-dimethylphenylsulfonyl)piperidin-2-yl)methoxy)-1-(6-(morpholinomethyl)-1-phenyl-3,4-dihydropyrrolo[1,2-a]pyrazin-2(1H)-yl)ethanone] are 103% and 102%.
Take `COc1cc(C)c(S(=O)(=O)N2CCCCC2COCC(=O)N2CCn3c(CN(C)C)ccc3C2Cc2ccccc2)c(C)c1` (stereo not drawn) [(65), 1-(1-benzyl-6-((dimethylamino)methyl)-3,4-dihydropyrrolo[1,2-a]pyrazin-2(1H)-yl)-2-((1-(4-methoxy-2,6-dimethylphenylsulfonyl)piperidin-2-yl)methoxy)ethanone]: the inhibition at 10 µM in assay [1] worked out at 102%; in assay [2], 100%.
